Measured values reported in paper PMC7044277 (Nature Communications, 2020).
Values joined by “and” are separate entries in the source; they are usually repeats but may differ in a detail not shown here. Equal values may be shown once.

What was measured:
Type in all cases: cell-based
320 non-olfactory GPCRs [1] = target: T1, 320 non-olfactory GPCRs (Homo sapiens, UniProt P04201); details: receptor MAS1; replicate values, Fig_4g
T1 construct: expressed in transfected cells; host or cells: HTLA cells
T1 sequence (P04201 whole entry): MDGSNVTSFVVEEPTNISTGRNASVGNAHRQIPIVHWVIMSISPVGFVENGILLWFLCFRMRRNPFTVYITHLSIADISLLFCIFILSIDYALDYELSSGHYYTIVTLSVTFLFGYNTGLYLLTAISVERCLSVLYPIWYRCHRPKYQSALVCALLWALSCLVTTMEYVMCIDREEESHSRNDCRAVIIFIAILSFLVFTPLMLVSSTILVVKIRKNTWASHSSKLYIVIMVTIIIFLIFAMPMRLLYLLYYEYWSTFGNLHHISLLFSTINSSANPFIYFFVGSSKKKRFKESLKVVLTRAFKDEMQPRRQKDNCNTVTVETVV

320 non-olfactory GPCRs [2] = target: T2, 320 non-olfactory GPCRs (Homo sapiens, UniProt P32247)
T2 construct: expressed in transfected cells; host or cells: HTLA cells
T2 sequence (P32247 whole entry): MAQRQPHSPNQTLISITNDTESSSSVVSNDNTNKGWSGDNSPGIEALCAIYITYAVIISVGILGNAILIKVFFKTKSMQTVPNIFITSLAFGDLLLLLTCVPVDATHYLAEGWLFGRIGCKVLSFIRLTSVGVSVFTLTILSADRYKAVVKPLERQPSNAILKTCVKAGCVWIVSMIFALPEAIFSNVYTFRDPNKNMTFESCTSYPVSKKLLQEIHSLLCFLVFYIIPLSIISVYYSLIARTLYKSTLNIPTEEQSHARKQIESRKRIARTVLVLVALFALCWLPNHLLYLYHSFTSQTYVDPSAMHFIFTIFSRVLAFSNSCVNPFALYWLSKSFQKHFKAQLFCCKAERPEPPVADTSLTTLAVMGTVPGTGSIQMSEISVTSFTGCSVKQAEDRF

320 non-olfactory GPCRs [3] = target: T3, 320 non-olfactory GPCRs (Homo sapiens, UniProt Q9GZQ6); details: receptor NPFF1; replicate values, Fig_4g
T3 construct: expressed in transfected cells; host or cells: HTLA cells
T3 sequence (Q9GZQ6 whole entry): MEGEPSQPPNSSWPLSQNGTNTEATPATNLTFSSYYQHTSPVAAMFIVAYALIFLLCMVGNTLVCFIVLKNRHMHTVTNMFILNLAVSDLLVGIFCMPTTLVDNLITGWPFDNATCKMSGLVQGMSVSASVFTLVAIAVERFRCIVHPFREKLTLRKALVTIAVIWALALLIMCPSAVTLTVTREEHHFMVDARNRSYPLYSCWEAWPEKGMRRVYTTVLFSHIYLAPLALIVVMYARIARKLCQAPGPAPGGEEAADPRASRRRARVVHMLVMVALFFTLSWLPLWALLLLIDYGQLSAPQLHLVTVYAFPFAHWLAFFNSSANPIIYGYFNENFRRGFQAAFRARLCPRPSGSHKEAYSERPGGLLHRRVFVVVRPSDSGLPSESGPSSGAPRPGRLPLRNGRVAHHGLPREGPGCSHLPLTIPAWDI

320 non-olfactory GPCRs [4] = target: T4, 320 non-olfactory GPCRs (Homo sapiens, UniProt Q86SQ4)
T4 construct: expressed in transfected cells; host or cells: HTLA cells
T4 sequence (Q86SQ4 38-1221): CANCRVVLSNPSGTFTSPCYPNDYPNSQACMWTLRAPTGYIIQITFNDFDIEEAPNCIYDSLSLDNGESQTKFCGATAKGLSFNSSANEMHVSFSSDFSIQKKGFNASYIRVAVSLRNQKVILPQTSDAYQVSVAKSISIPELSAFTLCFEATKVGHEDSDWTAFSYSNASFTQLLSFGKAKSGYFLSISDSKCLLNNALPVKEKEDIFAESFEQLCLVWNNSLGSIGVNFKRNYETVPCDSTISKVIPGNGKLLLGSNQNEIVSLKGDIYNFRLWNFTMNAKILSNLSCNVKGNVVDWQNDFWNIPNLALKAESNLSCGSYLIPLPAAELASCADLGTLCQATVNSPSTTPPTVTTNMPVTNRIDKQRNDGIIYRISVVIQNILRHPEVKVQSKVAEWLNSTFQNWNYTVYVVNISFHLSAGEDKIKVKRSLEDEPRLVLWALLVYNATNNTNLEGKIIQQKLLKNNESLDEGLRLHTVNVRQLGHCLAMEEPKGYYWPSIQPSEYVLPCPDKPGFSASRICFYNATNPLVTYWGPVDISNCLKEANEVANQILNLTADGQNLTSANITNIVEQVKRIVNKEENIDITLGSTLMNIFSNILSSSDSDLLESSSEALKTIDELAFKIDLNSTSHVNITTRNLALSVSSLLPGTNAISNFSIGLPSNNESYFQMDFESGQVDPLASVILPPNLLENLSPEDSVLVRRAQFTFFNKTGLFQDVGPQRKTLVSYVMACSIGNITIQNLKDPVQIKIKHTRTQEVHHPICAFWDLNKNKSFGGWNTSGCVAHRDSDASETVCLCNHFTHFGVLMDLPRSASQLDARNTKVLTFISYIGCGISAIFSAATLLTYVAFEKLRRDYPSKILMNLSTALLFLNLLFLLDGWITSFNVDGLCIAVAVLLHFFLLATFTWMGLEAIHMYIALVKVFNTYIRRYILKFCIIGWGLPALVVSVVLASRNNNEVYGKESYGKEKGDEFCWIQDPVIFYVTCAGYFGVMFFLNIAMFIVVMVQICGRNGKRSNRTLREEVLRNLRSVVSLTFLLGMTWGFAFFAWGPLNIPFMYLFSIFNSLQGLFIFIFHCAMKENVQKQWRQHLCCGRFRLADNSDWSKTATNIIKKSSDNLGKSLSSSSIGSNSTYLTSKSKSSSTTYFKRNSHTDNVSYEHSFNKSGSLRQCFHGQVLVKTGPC
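Throughout, for Fold of Basal: compound tested at 1 µM final concentration.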
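Throughout, for GPCRome agonism screen response: fold over basal response of each receptor without drug.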

## CCOc1cccc2cc(C(C)NCC3(O)CCCCC3)oc12 (stereo not shown) [O4LE6]
320 non-olfactory GPCRs [1]
  GPCRome agonism screen response: 0.7017 and 0.6641 and 0.72
320 non-olfactory GPCRs [2]
  Fold of Basal: 1.192 and 1.354 and 1.033 and 1.091
320 non-olfactory GPCRs [3]
  GPCRome agonism screen response: 1.802 and 0.79 and 0.7669 and 0.6228
320 non-olfactory GPCRs [4]
  Fold of Basal: 0.5649 and 0.8908 and 0.7066 and 0.464
